Assay results reported in patent publication US8598211B2, “Carboxamide compounds and their use as calpain inhibitors IV” (AbbVie Inc., priority 2009, dated 2013).

The molecules below were run against T1, calpain-I (Homo sapiens, UniProt P07384) (assay: Calpain I kinetic fluorescence enzyme inhibition assay). Conditions: calpain-I from human erythrocytes, Suc-Leu-Tyr-AMC, pH 7.3; apparent Ki from IC50 by Cheng-Prussoff.
T1 construct: calpain-I—isolated from human erythrocytes; purchased Calbiochem 208713; host or cells: human erythrocytes (natural source)
T1 sequence (P07384 1-714): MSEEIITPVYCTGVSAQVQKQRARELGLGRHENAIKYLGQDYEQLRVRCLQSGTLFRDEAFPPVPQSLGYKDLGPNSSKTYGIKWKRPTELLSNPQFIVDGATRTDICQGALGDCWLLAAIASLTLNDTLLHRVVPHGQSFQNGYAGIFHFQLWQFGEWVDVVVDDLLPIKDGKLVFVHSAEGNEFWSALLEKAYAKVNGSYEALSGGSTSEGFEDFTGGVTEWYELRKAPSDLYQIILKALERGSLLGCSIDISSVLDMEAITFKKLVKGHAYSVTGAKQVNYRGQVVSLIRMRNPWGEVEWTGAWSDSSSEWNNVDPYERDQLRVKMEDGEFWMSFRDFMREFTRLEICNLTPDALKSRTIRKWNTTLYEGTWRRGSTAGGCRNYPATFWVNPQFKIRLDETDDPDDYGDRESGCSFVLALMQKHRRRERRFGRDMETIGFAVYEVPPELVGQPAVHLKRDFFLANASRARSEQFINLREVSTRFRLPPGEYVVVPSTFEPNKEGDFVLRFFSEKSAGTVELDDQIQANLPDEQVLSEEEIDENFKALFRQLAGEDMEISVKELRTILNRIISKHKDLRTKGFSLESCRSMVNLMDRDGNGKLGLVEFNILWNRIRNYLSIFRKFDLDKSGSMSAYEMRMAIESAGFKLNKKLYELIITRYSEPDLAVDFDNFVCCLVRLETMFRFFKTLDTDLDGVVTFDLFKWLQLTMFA
T1 sequence (P04632 1-268 partner): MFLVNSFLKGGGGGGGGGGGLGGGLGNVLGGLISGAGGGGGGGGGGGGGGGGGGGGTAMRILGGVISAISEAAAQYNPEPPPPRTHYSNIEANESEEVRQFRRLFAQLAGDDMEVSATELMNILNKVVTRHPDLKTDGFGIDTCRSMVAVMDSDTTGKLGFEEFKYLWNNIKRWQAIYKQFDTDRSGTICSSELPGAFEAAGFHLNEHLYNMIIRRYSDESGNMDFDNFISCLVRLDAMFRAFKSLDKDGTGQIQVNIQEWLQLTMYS
Format: biochemical
Procedure: Testing for blockade of the corresponding enzymic activities was carried out by means of kinetic fluorescence assays (excitation 390 nm, emission 460 nm).
Apparent Ki values were calculated from the experimentally determined IC50 values by the Cheng-Prussoff relation assuming a reversible competitive enzyme inhibition.
20 nM calpain-I—isolated from human erythrocytes (Calbiochem #208713), 100 μM Suc-Leu-Tyr-AMC (Bachem #I-1355) as substrate in buffer with 62 mM imidazole, 0.3 mM CaCl2, 0.10% CHAPS, 0.05% BSA, 1 mM DTT at pH 7.3 and room temperature.

Ki	SMILES
400 to 800 nM	CCCNC(=O)C(=O)C(Cc1ccccc1)NC(=O)c1cccnc1-n1ccc(-c2ccccc2)n1 (stereo not drawn) [Example 11, N-(3,4-Dioxo-1-phenyl-4-(propylamino)butan-2-yl)-2-(3-phenyl-1H-pyrazol-1-yl)nicotinamide]
400 to 800 nM	O=C(NC1CC1)C(=O)C(Cc1ccc(F)cc1)NC(=O)c1cccnc1-n1ccc(-c2ccccc2)n1 (stereo not drawn) [Example 13, N-(4-(Cyclopropylamino)-1-(4-fluorophenyl)-3,4-dioxobutan-2-yl)-2-(3-phenyl-1H-pyrazol-1-yl)nicotinamide]
250 to 400 nM	CNC(=O)C(=O)C(Cc1ccccc1)NC(=O)c1cccnc1-n1ccc(-c2ccccc2)n1 (stereo not drawn) [Example 7, N-(4-(Methylamino)-3,4-dioxo-1-phenylbutan-2-yl)-2-(3-phenyl-1H-pyrazol-1-yl)nicotinamide, reference compound]
< 250 nM	O=C(NCc1ccccn1)C(=O)C(Cc1ccccc1)NC(=O)c1cccnc1-n1ccc(-c2ccccc2)n1 (stereo not drawn) [Example 8, N-[4-(Pyridin-2-ylmethylamino)-3,4-dioxo-1-phenylbutan-2-yl]-2-(3-phenyl-1H-pyrazol-1-yl)pyridine-3-carboxamide]
< 250 nM	NC(=O)C(=O)C(Cc1ccccc1)NC(=O)c1cccnc1-n1ccc(-c2ccc(F)cc2)n1 (stereo not drawn) [Example 18, N-(3-Amino-1-benzyl-2,3-dioxopropyl)-2-[3-(4-fluorophenyl)-1H-pyrazol-1-yl]nicotinamide, reference compound]
250 to 400 nM	O=C(NCCc1ccccc1)C(=O)C(Cc1ccccc1)NC(=O)c1cccnc1-n1ccc(-c2ccccc2)n1 (stereo not drawn) [Example 17, N-(3,4-Dioxo-4-(phenethylamino)-1-phenylbutan-2-yl)-2-(3-phenyl-1H-pyrazol-1-yl)nicotinamide]
250 to 400 nM	O=C(NCc1ccccn1)C(=O)C(Cc1ccccc1)NC(=O)c1cccnc1-n1ccc(-c2ccc(F)cc2)n1 (stereo not drawn) [Example 2, N-{3,4-Dioxo-1-phenyl-4-[(pyridin-2-ylmethyl)amino]butan-2-yl}-2-[3-(4-fluorophenyl)-1H-pyrazol-1-yl]pyridine-3-carboxamide]
< 250 nM	O=C(NCc1ccccc1)C(=O)C(Cc1ccccc1)NC(=O)c1cccnc1-n1ccc(-c2ccccc2)n1 (stereo not drawn) [Example 16, N-(4-(Benzylamino)-3,4-dioxo-1-phenylbutan-2-yl)-2-(3-phenyl-1H-pyrazol-1-yl)nicotinamide]
800 to 1000 nM	O=C(NC1CC1)C(=O)C(Cc1ccccc1)NC(=O)c1cccnc1-n1ccc(-c2ccc(F)cc2)n1 (stereo not drawn) [Example 19, N-[4-(Cyclopropylamino)-3,4-dioxo-1-phenyl-2-butanyl]-2-[3-(4-fluorophenyl)-1H-pyrazol-1-yl]nicotinamide]
< 250 nM	COC(=O)CNC(=O)C(=O)C(Cc1ccccc1)NC(=O)c1cccnc1-n1ccc(-c2ccccc2)n1 (stereo not drawn) [Example 21, Methyl N-[2-oxo-4-phenyl-3-({[2-(3-phenyl-1H-pyrazol-1-yl)-3-pyridinyl]carbonyl}amino)butanoyl]glycinat]
250 to 400 nM	O=C(NC1CC1)C(=O)C(Cc1cccc(F)c1)NC(=O)c1cccnc1-n1ccc(-c2ccccc2)n1 (stereo not drawn) [Example 14, N-(4-(Cyclopropylamino)-1-(3-fluorophenyl)-3,4-dioxobutan-2-yl)-2-(3-phenyl-1H-pyrazol-1-yl)nicotinamide]
< 250 nM	O=C(NC1CC1)C(=O)C(Cc1ccccc1)NC(=O)c1cccnc1-n1ccc(-c2ccccc2)n1 (stereo not drawn) [Example 5, N-[4-(Cyclopropylamino)-3,4-dioxo-1-phenylbutan-2-yl]-2-(3-phenyl-1H-pyrazol-1-yl)pyridine-3-carboxamide]
400 to 800 nM	O=C(NC1CC1)C(=O)C(Cc1ccc(OCCN2CCOCC2)cc1)NC(=O)c1cccnc1-n1ccc(-c2ccccc2)n1 (stereo not drawn) [Example 23, N-[4-(Cyclopropylamino)-1-{4-[2-(4-morpholinyl)ethoxy]phenyl}-3,4-dioxo-2-butanyl]-2-(3-phenyl-1H-pyrazol-1-yl)nicotinamide]
< 250 nM	O=C(NCc1nc2ccccc2o1)C(=O)C(Cc1ccccc1)NC(=O)c1cccnc1-n1ccc(-c2ccccc2)n1 (stereo not drawn) [Example 15, N-{4-[(1,3-Benzoxazol-2-ylmethyl)amino]-3,4-dioxo-1-phenylbutan-2-yl}-2-(3-phenyl-1H-pyrazol-1-yl)pyridine-3-carboxamide]
400 to 800 nM	O=C(NC1CC1)C(=O)C(Cc1ccc(CN2CCOCC2)cc1)NC(=O)c1cccnc1-n1ccc(-c2ccccc2)n1 (stereo not drawn) [Example 25, N-{4-(Cyclopropylamino)-1-[4-(4-morpholinylmethyl)phenyl]-3,4-dioxo-2-butanyl}-2-(3-phenyl-1H-pyrazol-1-yl)nicotinamide]
< 250 nM	O=C(NCCCc1ccccn1)C(=O)C(Cc1ccccc1)NC(=O)c1cccnc1-n1ccc(-c2ccc(F)cc2)n1 (stereo not drawn) [Example 4, N-(3,4-Dioxo-1-phenyl-4-{[3-(pyridin-2-yl)propyl]amino}butan-2-yl)-2-[3-(4-fluorophenyl)-1H-pyrazol-1-yl]pyridine-3-carboxamide]
400 to 800 nM	O=C(NC1CC1)C(=O)C(Cc1ccccc1)NC(=O)c1cccnc1-n1cc(F)c(-c2ccccc2)n1 (stereo not drawn) [Example 12, N-(4-(Cyclopropylamino)-3,4-dioxo-1-phenylbutan-2-yl)-2-(4-fluoro-3-phenyl-1H-pyrazol-1-yl)nicotinamide]
400 to 800 nM	O=C(NC1CCC1)C(=O)C(Cc1ccccc1)NC(=O)c1cccnc1-n1ccc(-c2ccccc2)n1 (stereo not drawn) [Example 10, N-(4-(Cyclobutylamino)-3,4-dioxo-1-phenylbutan-2-yl)-2-(3-phenyl-1H-pyrazol-1-yl)nicotinamide]
400 to 800 nM	C=CCNC(=O)C(=O)C(Cc1ccccc1)NC(=O)c1cccnc1-n1ccc(-c2ccccc2)n1 (stereo not drawn) [Example 6, N-[3,4-Dioxo-1-phenyl-4-(prop-2-en-1-ylamino)butan-2-yl]-2-(3-phenyl-1H-pyrazol-1-yl)pyridine-3-carboxamide]
250 to 400 nM	O=C(NCc1ncco1)C(=O)C(Cc1ccccc1)NC(=O)c1cccnc1-n1ccc(-c2ccccc2)n1 (stereo not drawn) [Example 24, N-{4-[(1,3-Oxazol-2-ylmethyl)amino]-3,4-dioxo-1-phenyl-2-butanyl}-2-(3-phenyl-1H-pyrazol-1-yl)nicotinamide]
400 to 800 nM	O=C(NCC1CC1)C(=O)C(Cc1ccccc1)NC(=O)c1cccnc1-n1ccc(-c2ccccc2)n1 (stereo not drawn) [Example 9, N-(4-(Cyclopropylmethylamino)-3,4-dioxo-1-phenylbutan-2-yl)-2-(3-phenyl-1H-pyrazol-1-yl)nicotinamide]

What follows are molecules tested against T2, cathepsin L (Homo sapiens, UniProt P07711) (assay: Cathepsin L kinetic fluorescence enzyme inhibition assay). Conditions: selectivity ratio versus calpain.
T2 construct: cathepsin L—isolated from human liver; purchased Calbiochem 219402; host or cells: human liver (natural source)
Format: biochemical
Procedure: 1 nM cathepsin L—isolated from human liver (Calbiochem #219402), 2 μM Z-Phe-Arg-AMC (Bachem #I-1160) as substrate in 50 mM MES, 2 mM EDTA, 0.05% Brij 35, 2.5 mM L-cysteine, pH 6.0, room temperature.

T2 sequence (P07711 114-333): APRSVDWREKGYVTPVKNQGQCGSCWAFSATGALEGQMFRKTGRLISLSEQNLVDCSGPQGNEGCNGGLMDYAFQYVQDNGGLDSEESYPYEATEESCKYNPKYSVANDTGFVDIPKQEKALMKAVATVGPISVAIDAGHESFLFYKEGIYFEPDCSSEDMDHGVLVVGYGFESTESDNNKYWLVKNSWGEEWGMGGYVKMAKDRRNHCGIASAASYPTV

Sel cat. L (Ki(cathepsin L)/Ki(calpain) ratio)	SMILES
++ (10<Ki(cathepsin L)/Ki(calpain)≦50)	O=C(NC1CC1)C(=O)C(Cc1ccc(OCCN2CCOCC2)cc1)NC(=O)c1cccnc1-n1ccc(-c2ccccc2)n1 (stereo not drawn) [Example 23, N-[4-(Cyclopropylamino)-1-{4-[2-(4-morpholinyl)ethoxy]phenyl}-3,4-dioxo-2-butanyl]-2-(3-phenyl-1H-pyrazol-1-yl)nicotinamide]

Each molecule was assayed against T3, cathepsin S (Homo sapiens, UniProt P25774) (assay: Cathepsin S kinetic fluorescence enzyme inhibition assay). Conditions: selectivity ratio versus calpain.
T3 construct: purchased Calbiochem 219343; host or cells: E. coli
Format: biochemical
Procedure: 0.5 nM recombinant human cathepsin S from E. coli (Calbiochem #219343), 20 μM Z-Val-Val-Arg-AMC (Bachem #I-1540) as substrate in 50 mM MES, 2 mM EDTA, 0.05% Brij 35, 2.5 mM L-cysteine, pH 6.0, room temperature.

T3 sequence (P25774 115-331): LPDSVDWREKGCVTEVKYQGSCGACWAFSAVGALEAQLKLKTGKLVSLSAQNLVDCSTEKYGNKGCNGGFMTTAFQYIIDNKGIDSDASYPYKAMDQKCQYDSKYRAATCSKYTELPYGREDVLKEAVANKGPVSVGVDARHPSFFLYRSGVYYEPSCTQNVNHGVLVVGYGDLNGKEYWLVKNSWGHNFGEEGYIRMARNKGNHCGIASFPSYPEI

Sel cat. S (Ki(cathepsin S)/Ki(calpain) ratio)	SMILES
++ (10<Ki(cathepsin S)/Ki(calpain)≦50)	O=C(NC1CC1)C(=O)C(Cc1ccc(OCCN2CCOCC2)cc1)NC(=O)c1cccnc1-n1ccc(-c2ccccc2)n1 (stereo not drawn) [Example 23, N-[4-(Cyclopropylamino)-1-{4-[2-(4-morpholinyl)ethoxy]phenyl}-3,4-dioxo-2-butanyl]-2-(3-phenyl-1H-pyrazol-1-yl)nicotinamide]
++ (10<Ki(cathepsin S)/Ki(calpain)≦50)	O=C(NC1CC1)C(=O)C(Cc1ccc(CN2CCOCC2)cc1)NC(=O)c1cccnc1-n1ccc(-c2ccccc2)n1 (stereo not drawn) [Example 25, N-{4-(Cyclopropylamino)-1-[4-(4-morpholinylmethyl)phenyl]-3,4-dioxo-2-butanyl}-2-(3-phenyl-1H-pyrazol-1-yl)nicotinamide]
